Laboratory results published in US20110207627A1, “EX VIVO THERAPEUTICS SCREENING OF LIVING BONE MARROW CELLS FOR MULTIPLE MYELOMA” (GEORGE MASON UNIVERSITY, priority 2008, published 2011).

System: CD138+ cells and bone marrow cells (BMC)
Assay: Ex vivo treatment of multiple myeloma bone marrow aspirates, reverse phase protein microarray, CD138+ cells compared with bone marrow cells
Assay type: cell-based, human
Conditions: female, treatment naive multiple myeloma patient; 4 hours ex vivo; IL-6 stimulated cells compared to IGF1R & Rapamycin combination (FIG. 3)
From the text: A workflow using protein kinase signal pathway mapping technology was developed for the ex vivo, short-term drug treatment of fresh, living human multiple myeloma (MM) bone marrow aspirate tumor cells, compared to non MM bone marrow cells for the same patient. The study sought a) to measure the signal pathway perturbations caused by the inhibitor/ligand treatment in individual baseline bone marrow aspirate samples, b) to correlate this with the susceptibility of the ex vivo living sample to apoptosis induction, within 4 hours, by a molecular targeted inhibitor which blocks this pathway, and c) to compare the relative sensitivity of tumor and non tumor bone marrow cells treated in admixture under identical conditions to identify predictive/prognostic protein-based biomarkers.
Human bone marrow aspirates (n=20) and clinical information were collected following an IRB approved protocol from patients providing informed consent. A portion of the aspirate that was not needed for pathological diagnosis was immediately fixed for baseline analysis and the remaining sample was separated into multiple aliquots for ex vivo treatment. […]
Reverse phase protein arrays were used to quantitatively map 60 to 75 signal pathway endpoints. The impact of each treatment was measured on the selected endpoint compared to the vehicle control. […]

IL-6: cytokine used as exogenous ligand to stimulate cells
pro survival signaling: Differential pro survival signaling
